Entries after “also recorded” stand apart in the source; their conditions may differ.
Legend:
[1] = FLACC total pain scores, open label single dose clinical study of diamorphine hydrochloride nasal spray in children; assay type: in vivo; details: 0.1 mg/kg body weight intranasally; children aged 1-<16 years
Description: An open label, single dose, sparse sampling pharmacokinetic dentate study in children aged from 1-<16 years attending hospital clinics for minor day surgery or laser treatment and requiring intravenous cannulation and opiate analgesia for their routine clinical management. The cannulation site on the child's arm was numbed with local anaesthetic cream, and a cannula was inserted. The child was then anaesthetized and a baseline blood sample taken. The child received 1-3 sprays of intranasal diamorphine, depending on their weight, and another blood sample was taken as soon as possible (from 0-10 minutes) post dose. […] Plasma acetylmorphine, morphine, morphine-3-glucuronide, and morphine-6-glucuronide concentrations were determined. The data from all children taking part in the trial was pooled and analysed together to avoid excessive blood sampling. […] Adverse events, vital signs, nasal tolerance and pain scores were also monitored. […]
For assessing the effectiveness of the Diamorphine Hydrochloride Nasal Spray pain scores were measured. The investigators or nurses measured the FLACC scores. The total score was based on 5 categories: (F) Face; (L) Legs; (A) Activity; (C) Cry; (C) Consolability; are scored between […]. […]

[2] = Adverse events, open label single dose clinical study of diamorphine hydrochloride nasal spray in children; assay type: in vivo; details: single intranasal dose
Description: (§1) An open label, single dose, sparse sampling pharmacokinetic dentate study in children aged from 1-<16 years attending hospital clinics for minor day surgery or laser treatment and requiring intravenous cannulation and opiate analgesia for their routine clinical management. The cannulation site on the child's arm was numbed with local anaesthetic cream, and a cannula was inserted. The child was then anaesthetized and a baseline blood sample taken. The child received 1-3 sprays of intranasal diamorphine, depending on their weight, and another blood sample was taken as soon as possible (from 0-10 minutes) post dose. Up to four further pharmacokinetic blood samples were taken from the cannula for the purposes of the study spaced out over the following time windows: 10-20 minutes, 20-30 minutes, 30-45 minutes, 45-60 minutes, 60-120 minutes and between 120 minutes post dose and removal of the cannula. Plasma acetylmorphine, morphine, morphine-3-glucuronide, and morphine-6-glucuronide concentrations were determined. The data from all children taking part in the trial was pooled and analysed together to avoid excessive blood sampling. Population pharmacokinetic parameters were estimated by using a non-linear mixed effects dentate approach. Adverse events, vital signs, nasal tolerance and pain scores were also monitored. […]

[3] = Respiratory depression (clinically notable changes in vital signs) in the clinical study; assay type: in vivo, children; details: single intranasal dose, 0.1 mg/kg body weight
Description: as §1

[4] = cited from earlier work
human plasma proteins = details: cited from earlier work
[5] = in presence of water degrades; cited from earlier work
[6] = 0.1 mg/kg of body weight, intravenous injection; cited from earlier work

## CC(=O)Oc1ccc2c3c1OC1[C@@H](OC(C)=O)C=C[C@H]4[C@@H](C2)N(C)CC[C@]314 (some centres unmarked) [diamorphine, 3,6-diacetyl ester of morphine]
[1]
  Analgesic effectiveness (in words): effective alone in producing the analgesic effects
[2]
  Incidence of adverse events (in words): very low
[3]
  Respiratory depression (clinically notable changes in vital signs): free from the major side effects such as respiratory depression; also recorded: No respiratory depressant effect was observed
[4]; in man
  half-life: two to three
[4]; in vivo
  Duration of analgesic effect: three to four
Human plasma proteins
  Protein binding (in words): does not bind to protein
[5]
  Stability in liquid dosage form (in words): highly unstable in liquid dosage form
[6]
  Respiratory depressant effect (in words): respiratory depressant effect is reported

From US20150231130A1, “PHARMACEUTICAL COMPOSITION COMPRISING DIAMORPHINE FOR INTRANASAL ADMINISTRATION” (WOCKHARDT LIMITED, priority 2012, published 2015)
